Assay in all cases: cell-based
The target of one test is hNav1.7 (Homo sapiens, UniProt Q15858). The class given is cell-based. Conditions: IonWorks Quattro. For orientation: The patch-clamp technique gives a direct electrical read-out from membranes.
The target of the next test is hNav1.5 (Homo sapiens, UniProt Q14524).
The target of a further test is hNav1.3 (Homo sapiens, UniProt Q9NY46). As to conditions: IonWorks Quattro, read-out: IWQ Use Nav1.3.
Setting [1] is: use-dependent, […], read-out: IWQ Use Nav1.7 (μm).
[2] abbreviates: use-dependent block, hNav1.7, read-out: IWQ Use Nav1.7.
Setting [3] is: IonWorks Quattro, use-dependent block, hNav1.5, read-out: IWQ Use Nav1.5.

Like-named read-outs stand apart in the source and are kept apart here. Positions of bridges follow the written chain, without caps; N, C: chain ends. Non-standard residues stand in square brackets, D forms with d. Residues, ends and D or L forms follow the SMILES beside them. 1Nal = N[C@@H](Cc1cccc2ccccc12)C(=O)O

Sequence of hNav1.7 (Q15858 whole entry, looked up): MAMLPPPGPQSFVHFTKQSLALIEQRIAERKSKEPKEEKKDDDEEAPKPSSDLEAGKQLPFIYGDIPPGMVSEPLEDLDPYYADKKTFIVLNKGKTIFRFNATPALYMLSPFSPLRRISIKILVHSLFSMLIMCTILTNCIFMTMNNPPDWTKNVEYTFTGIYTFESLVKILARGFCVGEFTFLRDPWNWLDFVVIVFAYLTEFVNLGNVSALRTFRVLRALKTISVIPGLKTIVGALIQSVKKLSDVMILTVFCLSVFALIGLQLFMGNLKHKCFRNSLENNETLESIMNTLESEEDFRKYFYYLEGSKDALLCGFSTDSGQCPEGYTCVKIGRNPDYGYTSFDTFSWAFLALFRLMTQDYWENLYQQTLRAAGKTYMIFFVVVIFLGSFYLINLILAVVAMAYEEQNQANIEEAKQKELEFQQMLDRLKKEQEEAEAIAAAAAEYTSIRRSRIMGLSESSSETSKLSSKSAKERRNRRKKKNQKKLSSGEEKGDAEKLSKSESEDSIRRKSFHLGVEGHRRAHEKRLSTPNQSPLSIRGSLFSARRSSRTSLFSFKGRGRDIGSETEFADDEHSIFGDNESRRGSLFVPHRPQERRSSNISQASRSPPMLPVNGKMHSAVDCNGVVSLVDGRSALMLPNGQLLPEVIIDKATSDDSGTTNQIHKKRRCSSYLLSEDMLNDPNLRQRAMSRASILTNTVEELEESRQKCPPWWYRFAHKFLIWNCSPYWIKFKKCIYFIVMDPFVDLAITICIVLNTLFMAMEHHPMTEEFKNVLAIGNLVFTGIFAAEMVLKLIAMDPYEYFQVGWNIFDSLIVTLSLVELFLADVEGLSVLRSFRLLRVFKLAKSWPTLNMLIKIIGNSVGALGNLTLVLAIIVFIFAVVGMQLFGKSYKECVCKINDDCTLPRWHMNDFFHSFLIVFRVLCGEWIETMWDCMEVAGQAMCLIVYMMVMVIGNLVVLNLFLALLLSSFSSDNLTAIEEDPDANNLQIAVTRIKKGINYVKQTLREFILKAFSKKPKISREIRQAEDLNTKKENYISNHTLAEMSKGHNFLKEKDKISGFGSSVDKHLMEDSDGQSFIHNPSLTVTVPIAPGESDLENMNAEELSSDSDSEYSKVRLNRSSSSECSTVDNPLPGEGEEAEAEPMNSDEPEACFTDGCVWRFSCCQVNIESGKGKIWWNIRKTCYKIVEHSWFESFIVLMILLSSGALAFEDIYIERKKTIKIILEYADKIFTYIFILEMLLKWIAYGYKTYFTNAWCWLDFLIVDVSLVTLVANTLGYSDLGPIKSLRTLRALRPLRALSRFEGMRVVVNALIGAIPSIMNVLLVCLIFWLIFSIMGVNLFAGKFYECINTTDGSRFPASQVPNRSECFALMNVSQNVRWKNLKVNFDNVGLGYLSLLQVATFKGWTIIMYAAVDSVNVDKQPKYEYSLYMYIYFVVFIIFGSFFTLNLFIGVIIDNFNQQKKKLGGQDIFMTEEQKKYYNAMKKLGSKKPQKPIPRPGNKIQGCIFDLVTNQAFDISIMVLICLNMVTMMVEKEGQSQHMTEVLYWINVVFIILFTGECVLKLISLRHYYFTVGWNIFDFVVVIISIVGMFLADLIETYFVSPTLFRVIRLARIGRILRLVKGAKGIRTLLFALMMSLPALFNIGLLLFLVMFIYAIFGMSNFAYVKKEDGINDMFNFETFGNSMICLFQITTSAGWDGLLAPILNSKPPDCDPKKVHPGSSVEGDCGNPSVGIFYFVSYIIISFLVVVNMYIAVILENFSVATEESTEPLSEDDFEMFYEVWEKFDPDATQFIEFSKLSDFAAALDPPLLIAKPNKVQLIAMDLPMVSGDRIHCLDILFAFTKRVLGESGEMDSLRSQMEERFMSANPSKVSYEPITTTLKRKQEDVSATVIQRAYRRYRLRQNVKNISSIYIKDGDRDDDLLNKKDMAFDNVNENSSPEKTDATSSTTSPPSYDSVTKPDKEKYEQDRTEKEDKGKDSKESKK
Sequence of hNav1.3 (Q9NY46 whole entry, looked up): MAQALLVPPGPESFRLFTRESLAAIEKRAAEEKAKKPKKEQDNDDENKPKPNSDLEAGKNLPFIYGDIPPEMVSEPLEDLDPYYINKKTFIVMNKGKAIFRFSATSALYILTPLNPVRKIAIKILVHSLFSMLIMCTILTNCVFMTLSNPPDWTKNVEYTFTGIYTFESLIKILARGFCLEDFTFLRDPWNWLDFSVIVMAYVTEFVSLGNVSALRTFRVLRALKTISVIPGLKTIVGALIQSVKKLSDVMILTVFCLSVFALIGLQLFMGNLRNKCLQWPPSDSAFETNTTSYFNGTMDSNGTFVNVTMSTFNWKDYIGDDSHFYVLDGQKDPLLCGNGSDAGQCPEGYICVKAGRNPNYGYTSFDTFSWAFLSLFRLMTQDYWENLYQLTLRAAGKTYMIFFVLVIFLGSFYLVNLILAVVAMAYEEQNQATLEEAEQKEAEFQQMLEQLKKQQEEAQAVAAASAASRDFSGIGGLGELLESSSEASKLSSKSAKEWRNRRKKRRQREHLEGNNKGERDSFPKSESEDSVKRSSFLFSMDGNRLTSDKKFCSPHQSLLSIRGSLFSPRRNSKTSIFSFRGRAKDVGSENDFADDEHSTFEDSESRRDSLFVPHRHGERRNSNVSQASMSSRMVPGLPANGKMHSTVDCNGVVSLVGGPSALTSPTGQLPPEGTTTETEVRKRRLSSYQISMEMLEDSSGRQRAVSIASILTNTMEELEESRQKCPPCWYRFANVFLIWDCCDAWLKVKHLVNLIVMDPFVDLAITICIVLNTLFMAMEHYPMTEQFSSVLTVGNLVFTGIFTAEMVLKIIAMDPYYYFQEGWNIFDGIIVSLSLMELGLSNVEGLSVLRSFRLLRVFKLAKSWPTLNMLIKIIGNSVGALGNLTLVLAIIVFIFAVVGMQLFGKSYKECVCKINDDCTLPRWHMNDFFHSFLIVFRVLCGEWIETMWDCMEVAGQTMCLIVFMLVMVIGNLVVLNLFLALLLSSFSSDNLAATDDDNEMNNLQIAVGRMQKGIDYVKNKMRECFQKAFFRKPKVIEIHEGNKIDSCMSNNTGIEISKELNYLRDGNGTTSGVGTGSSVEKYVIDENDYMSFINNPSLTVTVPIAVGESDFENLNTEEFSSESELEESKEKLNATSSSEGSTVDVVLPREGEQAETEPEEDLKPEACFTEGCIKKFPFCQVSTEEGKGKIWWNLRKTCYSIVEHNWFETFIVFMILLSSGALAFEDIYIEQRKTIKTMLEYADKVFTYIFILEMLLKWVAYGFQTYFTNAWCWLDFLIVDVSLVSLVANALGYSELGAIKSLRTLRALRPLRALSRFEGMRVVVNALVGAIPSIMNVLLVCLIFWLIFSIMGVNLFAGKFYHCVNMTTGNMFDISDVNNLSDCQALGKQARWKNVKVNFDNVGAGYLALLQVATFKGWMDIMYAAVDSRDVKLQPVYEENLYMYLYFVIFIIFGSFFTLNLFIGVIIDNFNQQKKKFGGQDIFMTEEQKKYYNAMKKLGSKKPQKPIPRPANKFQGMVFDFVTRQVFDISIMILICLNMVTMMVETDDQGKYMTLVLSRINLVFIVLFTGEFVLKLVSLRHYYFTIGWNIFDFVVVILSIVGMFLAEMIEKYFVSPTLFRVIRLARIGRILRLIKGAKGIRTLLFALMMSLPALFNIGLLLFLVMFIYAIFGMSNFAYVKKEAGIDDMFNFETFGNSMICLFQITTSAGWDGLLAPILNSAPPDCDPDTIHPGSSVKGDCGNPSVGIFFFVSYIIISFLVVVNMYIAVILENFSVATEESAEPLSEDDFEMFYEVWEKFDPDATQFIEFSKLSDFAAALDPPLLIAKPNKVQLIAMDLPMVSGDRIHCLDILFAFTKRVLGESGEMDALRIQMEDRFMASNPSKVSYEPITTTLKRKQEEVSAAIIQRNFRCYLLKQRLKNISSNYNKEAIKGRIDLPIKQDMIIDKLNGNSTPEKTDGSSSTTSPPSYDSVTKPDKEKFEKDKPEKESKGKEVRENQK

With `CC[C@H](C)[C@@H]1NC(=O)[C@@H]2CSSC[C@@H]3NC(=O)[C@H](C(C)C)NC(=O)[C@H](CC(C)C)NC(=O)[C@H](CC(N)=O)NC(=O)[C@@H]4CCCN4C(=O)[C@H](CCCNC(=N)N)NC(=O)[C@H](CSSC[C@H](NC(=O)[C@@H](N)CC(=O)O)C(=O)N[C@@H](CC(C)C)C(=O)NCC(=O)N[C@@H](Cc4ccccc4)C(=O)N[C@@H](CCSC)C(=O)N[C@@H](CCCNC(=N)N)C(=O)N[C@@H](CCCCN)C(=O)N2)NC(=O)[C@H](CSSC[C@@H](C(=O)N[C@@H](CCCCN)C(=O)N[C@@H](Cc2ccc(O)cc2)C(=O)N[C@H](C(=O)N[C@@H](Cc2ccccc2)C(=O)N[C@@H](Cc2ccccn2)C(N)=O)C(C)C)NC(=O)[C@H](Cc2c[nH]c4ccccc24)NC(=O)[C@H](CCCCN)NC(=O)[C@H](Cc2c[nH]cn2)NC(=O)[C@H]([C@@H](C)O)NC(=O)[C@H](CCCNC(=N)N)NC(=O)[C@H](CO)NC3=O)NC(=O)[C@H](CCCCN)NC(=O)[C@H](CC(=O)O)NC(=O)[C@H](CC(N)=O)NC(=O)[C@H](CC(=O)O)NC(=O)[C@@H]2CCCN2C1=O` [compound 414], the IC50 at hNav1.7 (setting [1]) came to 260 nM; at hNav1.5 (IonWorks Quattro, use-dependent, […], read-out: IWQ Use Nav1.5), 9.29 µM; at hNav1.3 (use-dependent, […]) it was 630 nM.

Turning to `CC[C@H](C)[C@@H]1NC(=O)[C@@H]2CSSC[C@@H]3NC(=O)[C@H](C(C)C)NC(=O)[C@H](CC(C)C)NC(=O)[C@H](CC(N)=O)NC(=O)[C@@H]4CCCN4C(=O)[C@H](CCCNC(=N)N)NC(=O)[C@H](CSSC[C@H](NC(=O)[C@@H](N)CC(=O)O)C(=O)N[C@@H](CC(C)C)C(=O)NCC(=O)N[C@@H](Cc4ccccc4)C(=O)N[C@@H](CCSC)C(=O)N[C@@H](CCCNC(=N)N)C(=O)N[C@@H](CCCCN)C(=O)N2)NC(=O)[C@H](CSSC[C@@H](C(=O)N[C@@H](CCCCN)C(N)=O)NC(=O)[C@H](Cc2c[nH]c4ccccc24)NC(=O)[C@H](CCCCN)NC(=O)[C@H](Cc2cnc[nH]2)NC(=O)[C@H]([C@@H](C)O)NC(=O)[C@H](CCCNC(=N)N)NC(=O)[C@H](CO)NC3=O)NC(=O)[C@H](CCCCN)NC(=O)[C@H](CC(=O)O)NC(=O)[C@H](CC(N)=O)NC(=O)[C@H](CC(=O)O)NC(=O)[C@@H]2CCCN2C1=O` [compound 417] (H-DCLGFMRKCIPDNDKCCRPNLVCSRTHKWCK-NH2; disulfide 2-17, 9-23, 16-30), the IC50 is 18300 nM on hNav1.7 (setting [1]); 11.9 µM on hNav1.5 (IWQ Use Nav1.5 (μM)); 9090 nM on hNav1.3 (use-dependent, […]).

Regarding `CC[C@H](C)[C@@H]1NC(=O)[C@@H]2CSSC[C@@H]3NC(=O)[C@H](C(C)C)NC(=O)[C@H](CC(C)C)NC(=O)[C@H](CC(N)=O)NC(=O)[C@@H]4CCCN4C(=O)[C@H](CCCNC(=N)N)NC(=O)[C@H](CSSC[C@H](NC(=O)[C@@H](N)CC(=O)O)C(=O)N[C@@H](CC(C)C)C(=O)NCC(=O)N[C@@H](C)C(=O)N[C@@H](CCSC)C(=O)N[C@@H](CCCNC(=N)N)C(=O)N[C@@H](CCCCN)C(=O)N2)NC(=O)[C@H](CSSC[C@@H](C(=O)N[C@@H](CCCCN)C(=O)N[C@@H](Cc2ccc(O)cc2)C(=O)N[C@@H](CCC(=O)O)C(=O)N[C@@H](Cc2ccccc2)C(N)=O)NC(=O)[C@H](Cc2c[nH]c4ccccc24)NC(=O)[C@H](CCCCN)NC(=O)[C@H](Cc2c[nH]cn2)NC(=O)[C@H]([C@@H](C)O)NC(=O)[C@H](CCCNC(=N)N)NC(=O)[C@H](CO)NC3=O)NC(=O)[C@H](CCCCN)NC(=O)[C@H](CC(=O)O)NC(=O)[C@H](CC(N)=O)NC(=O)[C@H](CC(=O)O)NC(=O)[C@@H]2CCCN2C1=O` [compound 419] (H-DCLGAMRKCIPDNDKCCRPNLVCSRTHKWCKYEF-NH2; disulfide 2-17, 9-23, 16-30), the IC50 at hNav1.7 (setting [2]) is 4000 nM; on hNav1.5 (setting [3]), 9.04 µM; at hNav1.3 (use-dependent block, hNav1.3), 3580 nM.

For `CC[C@H](C)[C@@H]1NC(=O)[C@@H]2CSSC[C@@H]3NC(=O)[C@H](C(C)C)NC(=O)[C@H](CC(C)C)NC(=O)[C@H](CC(N)=O)NC(=O)[C@@H]4CCCN4C(=O)[C@H](CCCNC(=N)N)NC(=O)[C@H](CSSC[C@H](NC(=O)[C@@H](N)CC(=O)O)C(=O)N[C@@H](CC(C)C)C(=O)NCC(=O)N[C@@H](C)C(=O)N[C@@H](CCSC)C(=O)N[C@@H](CCCNC(=N)N)C(=O)N[C@@H](CCCCN)C(=O)N2)NC(=O)[C@H](CSSC[C@@H](C(=O)N[C@@H](CCCCN)C(=O)N[C@@H](Cc2ccc(O)cc2)C(=O)N[C@@H](Cc2cccc4ccccc24)C(=O)N[C@@H](Cc2ccccc2)C(N)=O)NC(=O)[C@H](Cc2c[nH]c4ccccc24)NC(=O)[C@H](CCCNC(=N)N)NC(=O)[C@H](Cc2c[nH]cn2)NC(=O)[C@H]([C@@H](C)O)NC(=O)[C@H](CCCNC(=N)N)NC(=O)[C@H](CO)NC3=O)NC(=O)[C@H](CCCCN)NC(=O)[C@H](CC(=O)O)NC(=O)[C@H](CC(N)=O)NC(=O)[C@H](CC(=O)O)NC(=O)[C@@H]2CCCN2C1=O` [compound 420] (H-DCLGAMRKCIPDNDKCCRPNLVCSRTHRWCKY[1Nal]F-NH2; disulfide 2-17, 9-23, 16-30), the IC50 on hNav1.7 (setting [2]) worked out at 200 nM; at hNav1.5 (setting [3]) it was 7.5 µM; on hNav1.3 (use-dependent block, hNav1.3) it was 320 nM.

With `CC[C@H](C)[C@@H]1NC(=O)[C@@H]2CSSC[C@@H]3NC(=O)[C@H](C(C)C)NC(=O)[C@H](CC(C)C)NC(=O)[C@H](Cc4c[nH]c5ccccc45)NC(=O)[C@@H]4CCCN4C(=O)[C@H](CCCNC(=N)N)NC(=O)[C@H](CSSC[C@H](NC(=O)[C@@H](N)CC(=O)O)C(=O)N[C@@H](CC(C)C)C(=O)NCC(=O)N[C@@H](C)C(=O)N[C@@H](CCSC)C(=O)N[C@@H](CCCNC(=N)N)C(=O)N[C@@H](CCCCN)C(=O)N2)NC(=O)[C@H](CSSC[C@@H](C(=O)N[C@@H](CCCCN)C(=O)N[C@@H](Cc2ccc(O)cc2)C(=O)N[C@H](C(=O)N[C@@H](Cc2ccccc2)C(N)=O)C(C)C)NC(=O)[C@H](Cc2c[nH]c4ccccc24)NC(=O)[C@H](CCCCN)NC(=O)[C@H](Cc2c[nH]cn2)NC(=O)[C@H]([C@@H](C)O)NC(=O)[C@H](CCCNC(=N)N)NC(=O)[C@H](CO)NC3=O)NC(=O)[C@H](CCCCN)NC(=O)[C@H](CC(=O)O)NC(=O)[C@H](CC(N)=O)NC(=O)[C@H](CC(=O)O)NC(=O)[C@@H]2CCCN2C1=O` [compound 422] (H-DCLGAMRKCIPDNDKCCRPWLVCSRTHKWCKYVF-NH2; disulfide 2-17, 9-23, 16-30), the IC50 at hNav1.7 (setting [2]) was 280 nM; on hNav1.5 (setting [3]), above 5 µM; on hNav1.3 (use-dependent block, hNav1.3), 390 nM.

As to `CC[C@H](C)[C@@H]1NC(=O)[C@@H]2CSSC[C@@H]3NC(=O)[C@H](C(C)C)NC(=O)[C@H](CC(C)C)NC(=O)[C@H](CC(N)=O)NC(=O)[C@@H]4CCCN4C(=O)[C@H](CCCNC(=N)N)NC(=O)[C@H](CSSC[C@H](NC(=O)[C@@H](N)CC(=O)O)C(=O)N[C@@H](CC(C)C)C(=O)NCC(=O)N[C@@H](C)C(=O)N[C@@H](CCSC)C(=O)N[C@@H](CCCNC(=N)N)C(=O)N[C@@H](CCCCN)C(=O)N2)NC(=O)[C@H](CSSC[C@@H](C(=O)N[C@@H](CCCCN)C(=O)N[C@@H](Cc2ccc(O)cc2)C(=O)N[C@H](C(=O)N[C@@H](Cc2ccccc2)C(N)=O)C(C)C)NC(=O)[C@H](Cc2c[nH]c4ccccc24)NC(=O)[C@H](CCCCN)NC(=O)[C@H](Cc2c[nH]cn2)NC(=O)[C@H]([C@@H](C)O)NC(=O)[C@H](CCCNC(=N)N)NC(=O)[C@H](CO)NC3=O)NC(=O)[C@H](CCCCN)NC(=O)[C@H](CC(=O)O)NC(=O)[C@H](CC(N)=O)NC(=O)[C@H](Cc2c[nH]c3ccccc23)NC(=O)[C@@H]2CCCN2C1=O` [compound 423] (H-DCLGAMRKCIPWNDKCCRPNLVCSRTHKWCKYVF-NH2; disulfide 2-17, 9-23, 16-30), the IC50 was 430 nM on hNav1.7 (setting [2]); above 5 µM on hNav1.5 (setting [3]); 1090 nM on hNav1.3 (use-dependent block, hNav1.3).

Consider `CC[C@H](C)[C@@H]1NC(=O)[C@@H]2CSSC[C@@H]3NC(=O)[C@H](C(C)C)NC(=O)[C@H](CC(C)C)NC(=O)[C@H](CC(N)=O)NC(=O)[C@@H]4CCCN4C(=O)[C@H](CCCNC(=N)N)NC(=O)[C@H](CSSC[C@H](NC(=O)[C@@H](N)CC(=O)O)C(=O)N[C@@H](CC(C)C)C(=O)N[C@@H](Cc4c[nH]c5ccccc45)C(=O)N[C@@H](C)C(=O)N[C@@H](CCSC)C(=O)N[C@@H](CCCNC(=N)N)C(=O)N[C@@H](CCCCN)C(=O)N2)NC(=O)[C@H](CSSC[C@@H](C(=O)N[C@@H](CCCCN)C(=O)N[C@@H](Cc2ccc(O)cc2)C(=O)N[C@H](C(=O)N[C@@H](Cc2ccccc2)C(N)=O)C(C)C)NC(=O)[C@H](Cc2c[nH]c4ccccc24)NC(=O)[C@H](CCCCN)NC(=O)[C@H](Cc2c[nH]cn2)NC(=O)[C@H]([C@@H](C)O)NC(=O)[C@H](CCCNC(=N)N)NC(=O)[C@H](CO)NC3=O)NC(=O)[C@H](CCCCN)NC(=O)[C@H](CC(=O)O)NC(=O)[C@H](CC(N)=O)NC(=O)[C@H](CC(=O)O)NC(=O)[C@@H]2CCCN2C1=O` [compound 424] (H-DCLWAMRKCIPDNDKCCRPNLVCSRTHKWCKYVF-NH2; disulfide 2-17, 9-23, 16-30), for which the IC50 on hNav1.7 (setting [2]) was 490 nM; on hNav1.5 (setting [3]), above 5 µM; on hNav1.3 (use-dependent block, hNav1.3), 1170 nM.
